{"source": "ChEMBL document CHEMBL3779844", "about": "“Biocatalyzed synthesis of difuranosides and their ability to trigger production of TNF-α” (2016)", "note": "Calls of active or inactive are those of the source. The calls are words filed in the database; no cut-off is given here."}
{"tested_on": "RAW264.7", "experiment": "Immunomodulatory activity in mouse RAW264.7 cells assessed as TNF alpha production at 1 to 1000 ng/ml after 18 hrs by ELISA method", "type": "functional, cell-based"}
{"compound": "O=[N+]([O-])c1ccc(O[C@@H]2O[C@@H]([C@H](O)CO)[C@H](O)[C@H]2O[C@@H]2O[C@@H]([C@H](O)CF)[C@H](O)[C@H]2O)cc1", "Activity": "inactive"}
{"compound": "C[C@@H](O)[C@@H]1O[C@@H](OC[C@@H](O)[C@@H]2O[C@@H](Oc3ccc([N+](=O)[O-])cc3)[C@H](O)[C@H]2O)[C@H](O)[C@H]1O", "Activity": "inactive"}
{"compound": "O=[N+]([O-])c1ccc(O[C@@H]2O[C@@H]([C@H](O)CO)[C@H](O)[C@H]2O[C@@H]2O[C@@H]([C@H](O)CO)[C@H](O)[C@H]2O)cc1", "Activity": "Active"}
{"compound": "CCCCCCCCO[C@@H]1O[C@@H]([C@H](O)CO)[C@H](O)[C@H]1O[C@@H]1O[C@@H]([C@H](O)CO)[C@H](O)[C@H]1O", "Activity": "Active"}
{"compound": "CCCCCCCCO[C@@H]1O[C@@H]([C@H](O)CO[C@@H]2O[C@@H]([C@H](O)CO)[C@H](O)[C@H]2O)[C@H](O)[C@H]1O", "Activity": "Active"}
{"compound": "C[C@@H](O)[C@@H]1O[C@@H](O[C@H]2[C@H](Oc3ccc([N+](=O)[O-])cc3)O[C@@H]([C@H](O)CO)[C@@H]2O)[C@H](O)[C@H]1O", "Activity": "inactive"}
{"compound": "CCCCCCCCO[C@H]1O[C@H]([C@H](C)O)[C@@H](O)[C@@H]1O[C@@H]1O[C@@H]([C@@H](O)CO)[C@H](O)[C@H]1O[C@@H]1O[C@@H]([C@@H](O)CO)[C@H](O)[C@H]1O", "note": "(stereo in doubt)", "Activity": "Active"}
{"compound": "C[C@@H](O)[C@@H]1O[C@@H](O[C@H](CO)[C@@H]2O[C@@H](Oc3ccc([N+](=O)[O-])cc3)[C@H](O)[C@H]2O)[C@H](O)[C@H]1O", "Activity": "inactive"}
{"compound": "CCCCCCCCO[C@@H]1O[C@@H]([C@H](O)CO)[C@H](O)[C@H]1O[C@@H]1O[C@@H]([C@H](O)CO)[C@H](O)[C@H]1O[C@H]1O[C@H]([C@H](O)CO)[C@@H](O)[C@@H]1O[C@@H]1O[C@@H]([C@@H](O)CO)[C@H](O)[C@H]1O[C@H]1O[C@H]([C@@H](O)CO)[C@@H](O)[C@@H]1O", "note": "(stereo in doubt)", "Activity": "Active"}
{"compound": "CCCCCCCCO[C@H]1O[C@H]([C@@H](O)CO)[C@@H](O)[C@@H]1O[C@@H]1O[C@@H]([C@@H](O)CO)[C@H](O)[C@H]1O[C@@H]1O[C@@H]([C@@H](O)CO)[C@H](O)[C@H]1O", "note": "(stereo in doubt)", "Activity": "Active"}
{"compound": "C[C@@H](O)[C@@H]1O[C@@H](O[C@@H]2[C@@H](O)[C@H](Oc3ccc([N+](=O)[O-])cc3)O[C@H]2[C@H](O)CO)[C@H](O)[C@H]1O", "Activity": "inactive"}
{"compound": "CCCCCCCCO[C@@H]1O[C@@H]([C@H](O)CO)[C@H](O)[C@H]1O[C@H]1O[C@H]([C@@H](O)CO)[C@@H](O)[C@@H]1O[C@@H]1O[C@@H]([C@@H](O)CO)[C@H](O)[C@H]1O[C@@H]1O[C@@H]([C@@H](O)CO)[C@H](O)[C@H]1O", "note": "(stereo in doubt)", "Activity": "Active"}
{"compound": "O=[N+]([O-])c1ccc(O[C@@H]2O[C@@H]([C@H](O)CO[C@@H]3O[C@@H]([C@H](O)CF)[C@H](O)[C@H]3O)[C@H](O)[C@H]2O)cc1", "Activity": "inactive"}
{"compound": "O=[N+]([O-])c1ccc(O[C@@H]2O[C@@H]([C@H](O)CO)[C@H](O)[C@H]2O[C@@H]2O[C@@H]([C@H](O)CO)[C@H](O)[C@H]2O[C@@H]2O[C@@H]([C@H](O)CO)[C@H](O)[C@H]2O)cc1", "Activity": "Active"}
{"compound": "CCCCCCCCO[C@H]1O[C@H]([C@@H](O)CF)[C@@H](O)[C@@H]1O[C@@H]1O[C@@H]([C@@H](O)CO)[C@H](O)[C@H]1O[C@@H]1O[C@@H]([C@@H](O)CO)[C@H](O)[C@H]1O", "note": "(stereo in doubt)", "Activity": "Active"}
{"compound": "C[C@@H](O)[C@@H]1O[C@@H](O[C@H]2[C@H](O[C@H]3[C@H](Oc4ccc([N+](=O)[O-])cc4)O[C@@H]([C@H](O)CO)[C@@H]3O)O[C@@H]([C@@H](C)O)[C@@H]2O)[C@H](O)[C@H]1O", "Activity": "Active"}
{"tested_on": "RAW264.7", "experiment": "Immunomodulatory activity in mouse RAW264.7 cells assessed as TNF alpha production at 1 to 1000 ng/ml after 18 hrs by ELISA method (reference value: 4.4 +/- 3.4 pg/ml)", "type": "functional", "units": {"Activity": "pg/mL"}}
{"compound": "O=[N+]([O-])c1ccc(O[C@@H]2O[C@@H]([C@H](O)CF)[C@H](O)[C@H]2O[C@@H]2O[C@@H]([C@H](O)CF)[C@H](O)[C@H]2O)cc1", "Activity": ">200"}
{"tested_on": "RAW264.7", "experiment": "Immunomodulatory activity in mouse RAW264.7 cells assessed as increase in TNF alpha production after 18 hrs by ELISA method (reference value: 4.4 +/- 3.4 pg/ml)", "type": "functional", "units": {"Activity": "pg/mL"}}
{"compound": "CCCCCCCCO[C@@H]1O[C@@H]([C@H](O)CF)[C@H](O)[C@H]1O[C@@H]1O[C@@H]([C@H](O)CF)[C@H](O)[C@H]1O", "Activity": 600}
